What was measured:
[1] = tested on: HeLa cells; assay: Cell viability, HeLa cells exposed to PARP inhibitor and caffeine; details: 1 mM Caffeine plus KU0058684
Description: Error bars represent standard errors of the mean.
Caffiene was used to determine whether loss of ATM and ATR dependent DNA signalling pathways would induce sensitivity to PARP inhibition.

[2] = tested on: HeLa cells transfected with DSS1 and RPA siRNA plasmids; assay: Cell viability, HeLa cells transfected with DSS1 and RPA siRNA plasmids; type: cell-based, human
Protocol: (§1) For cell viability assays, HeLa cells were co-transfected with pSUPER and pEFBsd in 96 well plates using FuGene (Roche, USA) according to the manufacturers instructions. Twenty-four hours after transfection, cells were plated into replica plates and this was followed by treatment with PARP inhibitors and blasticidin 48 hours post transfection. Media containing PARP inhibitors and blasticidin was replenished five days post-transfection and cell viability was measured at seven days using the 96 well plate CellTitre-Glo™ Luminescent Cell Viability Assay kit (Promega, USA, according to the manufacturers instructions).

[3] = target: PARP-3 (Homo sapiens, UniProt Q9Y6F1); assay: Selectivity: PARP-3 inhibition; type: biochemical; details: at concentrations up to 1 μM
PARP-3, sequence (Q9Y6F1 whole entry, species assumed): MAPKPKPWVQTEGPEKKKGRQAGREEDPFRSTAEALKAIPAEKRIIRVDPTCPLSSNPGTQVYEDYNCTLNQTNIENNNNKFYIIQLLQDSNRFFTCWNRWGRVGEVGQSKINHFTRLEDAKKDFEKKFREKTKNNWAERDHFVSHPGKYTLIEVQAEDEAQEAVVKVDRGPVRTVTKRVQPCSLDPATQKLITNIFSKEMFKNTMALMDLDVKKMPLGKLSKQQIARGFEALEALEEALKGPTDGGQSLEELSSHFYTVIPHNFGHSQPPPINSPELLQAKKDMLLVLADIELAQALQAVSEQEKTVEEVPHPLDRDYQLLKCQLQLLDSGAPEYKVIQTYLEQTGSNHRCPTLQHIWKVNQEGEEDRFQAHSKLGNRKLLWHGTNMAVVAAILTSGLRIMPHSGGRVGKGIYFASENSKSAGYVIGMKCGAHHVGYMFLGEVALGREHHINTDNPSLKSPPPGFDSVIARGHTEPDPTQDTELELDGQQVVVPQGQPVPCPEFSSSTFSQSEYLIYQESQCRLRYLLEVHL

[4] = target: vault PARP (Homo sapiens, UniProt Q9UKK3); assay: Selectivity: vault PARP inhibition; type: biochemical; details: at concentrations up to 1 μM
vault PARP, sequence (Q9UKK3 whole entry): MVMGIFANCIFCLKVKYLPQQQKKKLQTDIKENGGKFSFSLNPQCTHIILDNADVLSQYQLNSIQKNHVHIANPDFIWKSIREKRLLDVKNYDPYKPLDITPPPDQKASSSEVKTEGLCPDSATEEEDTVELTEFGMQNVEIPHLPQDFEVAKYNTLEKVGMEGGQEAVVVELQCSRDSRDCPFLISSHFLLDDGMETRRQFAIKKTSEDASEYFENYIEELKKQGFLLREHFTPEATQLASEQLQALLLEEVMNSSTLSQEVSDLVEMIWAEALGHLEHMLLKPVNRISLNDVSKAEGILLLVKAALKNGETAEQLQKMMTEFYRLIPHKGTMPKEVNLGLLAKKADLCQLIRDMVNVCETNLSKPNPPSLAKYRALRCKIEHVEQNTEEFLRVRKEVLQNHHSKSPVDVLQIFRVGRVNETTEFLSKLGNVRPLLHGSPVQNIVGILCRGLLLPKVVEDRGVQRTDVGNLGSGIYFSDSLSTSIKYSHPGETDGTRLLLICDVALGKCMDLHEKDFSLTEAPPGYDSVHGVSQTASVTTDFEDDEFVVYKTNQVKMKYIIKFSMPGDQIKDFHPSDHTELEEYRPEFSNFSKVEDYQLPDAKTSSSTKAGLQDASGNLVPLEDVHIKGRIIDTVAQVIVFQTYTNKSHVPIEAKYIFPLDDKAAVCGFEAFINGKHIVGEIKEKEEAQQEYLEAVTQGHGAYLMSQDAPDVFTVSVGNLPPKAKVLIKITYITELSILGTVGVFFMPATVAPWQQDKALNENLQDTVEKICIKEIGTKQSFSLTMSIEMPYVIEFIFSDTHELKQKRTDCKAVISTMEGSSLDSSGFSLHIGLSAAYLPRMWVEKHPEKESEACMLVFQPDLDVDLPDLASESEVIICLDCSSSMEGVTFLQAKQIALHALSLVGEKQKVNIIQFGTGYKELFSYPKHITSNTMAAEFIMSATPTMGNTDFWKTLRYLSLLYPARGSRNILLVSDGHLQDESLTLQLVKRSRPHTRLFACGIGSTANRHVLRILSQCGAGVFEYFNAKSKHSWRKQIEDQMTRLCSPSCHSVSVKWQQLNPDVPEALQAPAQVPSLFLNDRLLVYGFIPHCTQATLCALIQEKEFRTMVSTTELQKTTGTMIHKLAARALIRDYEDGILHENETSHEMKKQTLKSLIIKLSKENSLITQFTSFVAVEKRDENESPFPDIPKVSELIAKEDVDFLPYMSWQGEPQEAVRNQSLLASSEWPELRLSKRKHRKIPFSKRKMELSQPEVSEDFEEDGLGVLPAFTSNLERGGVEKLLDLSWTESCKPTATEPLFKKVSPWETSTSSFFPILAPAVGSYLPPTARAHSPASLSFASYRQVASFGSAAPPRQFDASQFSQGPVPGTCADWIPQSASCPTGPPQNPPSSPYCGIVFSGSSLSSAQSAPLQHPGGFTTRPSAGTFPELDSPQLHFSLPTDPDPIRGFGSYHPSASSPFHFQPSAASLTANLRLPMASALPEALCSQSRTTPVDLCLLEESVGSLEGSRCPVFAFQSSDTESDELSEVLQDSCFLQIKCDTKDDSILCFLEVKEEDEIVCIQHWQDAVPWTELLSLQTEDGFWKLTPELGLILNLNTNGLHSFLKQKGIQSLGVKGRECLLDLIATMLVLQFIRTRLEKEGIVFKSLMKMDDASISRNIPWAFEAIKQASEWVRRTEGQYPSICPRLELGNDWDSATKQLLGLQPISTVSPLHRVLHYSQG

[5] = tested on: tankyrase; details: at concentrations up to 1 μM
[6] = tested on: RAD51 siRNA transfected HeLa cells; assay: Clonogenic survival, HeLa cells with RAD51 RNAi silencing; type: cell-based, human; details: continuous treatment
Description: Clonogenic survival curves of transfected HeLa cells under constant exposure to a range of concentrations of PARP inhibitor (KU0058684) for 12-14 days. […] SF50 for pSUPER-CFP-CONTROL transfected cells is >1×10^−5 M and is 1×10^−6 M for pSUPER-CFP-17/19/23 transfected cells.
HeLa cells were transfected using FuGene (Roche, USA) according to the manufacturers instructions. For clonogenic survival assays, cells were co-transfected in 6 well plates with pSUPER and a vector expressing blasticidin resistance (pEF-Bsd, Invitrogen, USA) at a ratio of 10:1 (pSUPER: pEF-Bsd). Twenty-four hours after transfection, cells were plated into replica plates and this was followed by treatment with PARP inhibitors and blasticidin 48 hours post transfection.

[7] = tested on: Rad52 deficient ES cells; assay: Clonogenic survival, Rad52 deficient ES cells; type: cell-based
Protocol: (§2) For measurement of sensitivity to chemical inhibitors, cell cultures e.g. ES cells or mouse embryonic fibroblasts, in exponential growth were trypsinised and seeded at various densities in 6-well plates onto confluent monolayer of Mitomycin C (MMC) inactivated mouse embryonic fibroblasts and, where appropriate, treated with inhibitors after 18 h. For continuous exposure, cells were re-fed every 4 days with fresh medium and inhibitor. For timed exposures, inhibitor was added for the specified period then cells were washed and re-fed with fresh medium. After 10-14 days, cells were washed with PBS, fixed in methanol and stained with crystal violet. Colonies containing greater than approximately 50 cells were counted. Experiments were performed at least three times in triplicate.

[8] = tested on: Brca1 deficient ES cells; assay: Clonogenic assay, continuous exposure, Brca1 deficient ES cells; type: cell-based, mouse
Protocol: as §2

[9] = tested on: Fancd2−/−, Fanca−/−, Fancc−/− and Fanca−/−c−/− fibroblasts; assay: Clonogenic survival, Fanconi anaemia mouse fibroblasts; type: cell-based; details: continuous exposure 12-14 days
Protocol: Mouse fibroblasts from wild-type, Fancd2^−/−, Fanca^−/−, Fancc^−/− and Fanca^−/−c^−/− animals were obtained from the Fanconi Anaemia Cell Repository, Oregon Health and Science University. These cells were maintained in DMEM, supplemented with FCS (10% v/v), glutamine and antibiotics. RAD54 and RAD52 Embryonic Stem (ES) cells were grown in DMEM, supplemented with FCS (15% v/v), glutamine, antibiotics, non-essential amino acids, 2-mercaptoethanol and Leukemia inhibitory Factor. HeLa cells (CCL-2) were obtained from ATCC (USA) and were maintained in DMEM, supplemented with FCS (10% v/v), glutamine and antibiotics.
as §2

[10] = tested on: HeLa cells with BRCA1, BRCA2 and RAD51 silencing; assay: Cell viability, HeLa cells with BRCA1, BRCA2 or RAD51 silencing; type: cell-based, human; details: five days
Protocol: as §1

[11] = target: PARP-2 (Homo sapiens, UniProt Q9UGN5); assay: Inhibition of poly(ADP-ribose) polymerase activity of PARP-2; type: biochemical
PARP-2, sequence (Q9UGN5 whole entry): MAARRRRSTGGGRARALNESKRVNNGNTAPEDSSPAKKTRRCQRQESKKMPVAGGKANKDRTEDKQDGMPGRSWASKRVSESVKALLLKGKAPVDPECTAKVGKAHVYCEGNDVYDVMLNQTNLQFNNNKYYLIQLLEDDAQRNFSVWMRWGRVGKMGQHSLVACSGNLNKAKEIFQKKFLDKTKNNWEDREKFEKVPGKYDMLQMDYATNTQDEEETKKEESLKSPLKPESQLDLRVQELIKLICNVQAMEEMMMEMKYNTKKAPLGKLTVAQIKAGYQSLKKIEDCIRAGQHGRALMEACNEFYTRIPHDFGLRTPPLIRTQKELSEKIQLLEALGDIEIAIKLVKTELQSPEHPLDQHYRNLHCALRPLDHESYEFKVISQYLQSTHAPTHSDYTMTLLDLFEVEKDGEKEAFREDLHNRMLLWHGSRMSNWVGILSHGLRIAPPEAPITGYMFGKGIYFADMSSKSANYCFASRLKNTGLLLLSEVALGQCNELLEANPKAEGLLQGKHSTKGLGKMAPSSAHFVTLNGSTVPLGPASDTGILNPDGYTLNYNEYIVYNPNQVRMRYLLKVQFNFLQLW

[12] = tested on: HeLa cells transfected with ATM, ATR, CHK1 or CHK2 silencing RNAi; assay: Cell viability, HeLa cells transfected with ATM, ATR, CHK1 or CHK2 silencing RNAi; type: cell-based, human; details: five days
Protocol: as §1

[13] = tested on: Brca2 deficient ES cells; assay: Clonogenic assay, continuous exposure, Brca2 deficient ES cells; type: cell-based, mouse
Protocol: as §2

[14] = tested on: HT29 cells; assay: SRB cell growth assay, ATM/PARP inhibitor combination; type: cell-based; details: KU-0059436 plus KU-60019
Protocol: (§3) Cell growth was assessed using the sulforhodamine B (SRB) assay (Skehan, P. et al (1990) J. Natl. Cancer Inst. 82, 1107-1112) 2,000 cells were seeded into each well of a flat-bottomed 96-well microtiter plate in a volume of […] and incubated for 6 hours at 37° C. Cells were either replaced with media alone or with media containing PARP inhibitor or ATM inhibitor or both at a range of concentrations shown. Cells were then allowed to grow for a further 96 hours after which the media was removed and the cells fixed with […] of ice cold 10% (w/v) trichloroacetic acid. The plates were incubated at 4° C. for 20 minutes and then washed four times with water. Each well of cells was then stained with […] of 0.4% (w/v) SRB in 1% acetic acid for 20 minutes before washing four times with 1% acetic acid. Plates were then dried for 2 hours at room temperature. The dye from the stained cells was solubilized by the addition of […] of 10 mM Tris Base into each well. Plates were gently shaken and left at room temperature for 30 minutes before measuring the optical density at 564 nm on a Microquant microtiter plate reader.

[15] = tested on: FT/pEBS7 ATM−/− cells; assay: SRB cell growth assay, ATM deficient vs complemented cells; type: cell-based; details: FT/pEBS7 ATM−/− vs FT/pEBS7-Y25 ATM+/+
Protocol: as §3

[16] = tested on: NBS1−/− fibroblast cells; assay: SRB cell growth assay, NBS1 deficient fibroblasts vs MRC5; type: cell-based
Protocol: as §3

Cn1c(=O)c2c(ncn2C)n(C)c1=O [Caffeine, reference compound]
sensitivity of HeLa cells to PARP inhibitor with caffeine [1]: increased sensitivity

O=C(c1cc(Cc2n[nH]c(=O)c3ccccc23)ccc1F)N1CCCNCC1 [KU0058948]
sensitivity of DSS1 and RPA siRNA transfected cells compared to control plasmid [2]: enhanced sensitivity
inhibition of PARP-3 [3]: do not inhibit
inhibition of vault PARP [4]: do not inhibit
inhibition of tankyrase [5]: do not inhibit
clonogenic survival of RAD51 siRNA transfected cells compared to control transfected cells [6]: significant reduction in the clonogenic survival
sensitivity of Rad52 deficient ES cells compared to wild-type cells [7]: no more sensitive
sensitivity of Brca1 mutant cells relative to KU0058684 [8]: even greater than that of KU0058684
sensitivity of Brca1 deficient cells compared to otherwise isogenic cells ([8]; clonogenic assay): extremely sensitive
sensitivity of FA gene deficient fibroblasts compared to wild-type cells [9]: results in sensitivity
sensitivity to PARP inhibition after BRCA1, BRCA2 and RAD51 silencing [10]: profound sensitivity
inhibition of poly(ADP-ribose) polymerase activity of PARP-1 and PARP-2 [11]: potent and specific inhibitors
sensitivity of ATM, ATR, CHK1, CHK2 siRNA transfected HeLa cells compared to control plasmid [12]: increased sensitivity
sensitivity of Brca2 mutant cells relative to KU0058684 [13]: even greater than that of KU0058684
sensitivity of Brca2 deficient cells compared to otherwise isogenic cells ([13]; clonogenic assay): extremely sensitive

O=C(c1cc(Cc2n[nH]c(=O)c3ccccc23)ccc1F)N1CCN(C(=O)C2CC2)CC1 [KU0059436]
sensitivity to PARP inhibition with ATM inhibitor combination [14]: Sensitivity to PARP inhibition was observed to increase with increasing concentrations of ATMI
sensitivity of ATM deficient cells compared to wild-type cells [15]: more sensitive
sensitivity of NBS1 deficient cells compared to wild-type cells [16]: more sensitive

C[C@@H]1CN(CC(=O)Nc2ccc3c(c2)Cc2cccc(-c4cc(=O)cc(N5CCOCC5)o4)c2S3)C[C@H](C)O1 [KU-60019, reference compound]
sensitivity to PARP inhibition with ATM inhibitor combination [14]: Sensitivity to PARP inhibition was observed to increase with increasing concentrations of ATMI

From patent US8143241B2, “DNA damage repair inhibitors for treatment of cancer” (Kudos Pharmaceuticals Limited, priority 2003, dated 2012)
